Test results: article PMC8621570, “Mechanistic Studies of Antibiotic Adjuvants Reducing Kidney’s Bacterial Loads upon Systemic Monotherapy” (Pharmaceutics, 2021)

Columns and labels:
[1] = tested on: E. coli 25922; experiment: Thigh infection model; format: in vivo, mouse; conditions: 12.5 mg/kg S.C at 1 and 3 h post-infection, CFU/thigh at 24 h, 8 mice per group
Description: Animals: All animal studies were performed using male ICR mice (25 ± 2 gr). The Technion Animal Care and Use committee approved all procedures, care, and handling of animals. Ethics approval codes: IL0800519, IL0640421, IL0550618, IL1811217.
For efficacy assessments, three infection models were used including one with topical treatment and two with systemic treatment. • Excisional skin wound infection model: mice were anesthetized by intraperitoneal administration of a mixture of ketamine 100 mg/kg and xylazine 5 mg/kg in PBS and their backs shaved with electric clippers. The following day mice were similarly anesthetized and were administrated (S.C) 0.05 mg/kg buprenorphine (for pain relief). A 5 mm diameter piece of skin was removed from the middle of the shaved back, with sterile biopsy punch resulting in a full-thickness injury. A total of 20 µL of a mid-logarithmic culture, containing 5 × 10^6 CFU P. aeruginosa 27853 were applied on the wound. […] The number of viable bacteria was determined after overnight incubation at 37 °C. […] The number of viable bacteria was determined after overnight incubation at 37 °C. […] The number of viable bacteria was determined after overnight incubation at 37 °C. […]

[2] = Organ bio-distribution; format: in vivo, mouse; conditions: 3 h post single S.C 12.5 mg/kg, ICR mice, organ homogenates, LC-MS
Description: C14(ω5)OOc10O was subjected to preliminary pharmacokinetics (PK) analysis to determine its plasma concentrations or organ bio-distribution following S.C administration to non-neutropenic pathogen-free mice. OAC quantification was performed by LC-MS as follows: blood was drawn at various time intervals and plasma was separated by centrifugation (5000 RCF, 10 min). Organs were excised and homogenized. Then, OAC was extracted from both plasma and organ homogenates by incubation with 50% acetonitrile: 50% methanol at room temperature with shaking for 30 min, and subsequent centrifugation (5000 RCF, 10 min). Supernatants were diluted two-fold in distilled water and analyzed by LC-MS (ULC ultimate 3000 DIONEX, MS BRUKER Maxis impact). Quantification was based on standard calibration curves, prepared by spiking fresh mice plasma (for PK) or water (for organ bio-distribution) with various amounts of the tested OAC (final concentrations from 2.5 to 50 µg/mL) and subjected to an identical procedure as described above.
Figure 10 Systemic efficacy studies using mouse infection models. (a,b) Data points represent colony forming unit (CFU) counts harvested from infected mice (8 and 10 mice per group, respectively). […]

With CCCCC=CCCCCCCCC(=O)N[C@@H](CCCN)C(=O)N[C@@H](CCCN)C(=O)NCCCCCCCCCC(=O)N[C@@H](CCCN)C(N)=O [C14(ω5)OOc10O] the “Effect on thigh bacterial loads” value [1] was “unable to reduce bacterial loads” and the “Concentration in liver and kidneys relative to lymph nodes, thighs, bladder, brain or spleen” value [2] was “at least 3 times”.
